From ChEMBL document CHEMBL3751811, “The discovery of a novel antibiotic for the treatment of Clostridium difficile infections: a story of an effective academic-industrial partnership” (Medchemcomm, 2015)
≈ marks a conversion by molar mass, not a printed value.

Tests used:
[1] = system: Mycobacterium tuberculosis; test: Antibacterial activity against Mycobacterium tuberculosis H37Rv logarithmic phase forms by spot culture growth inhibition assay; assay type: functional
[2] = molecular target: DNA gyrase subunit A/DNA gyrase subunit B (Mycobacterium tuberculosis (strain ATCC 25618 / H37Rv), UniProt P9WG45+P9WG47); test: Inhibition of Mycobacterium tuberculosis H37Rv DNA gyrase supercoiling activity
Chain of DNA gyrase subunit A/DNA gyrase subunit B (P9WG45 whole entry): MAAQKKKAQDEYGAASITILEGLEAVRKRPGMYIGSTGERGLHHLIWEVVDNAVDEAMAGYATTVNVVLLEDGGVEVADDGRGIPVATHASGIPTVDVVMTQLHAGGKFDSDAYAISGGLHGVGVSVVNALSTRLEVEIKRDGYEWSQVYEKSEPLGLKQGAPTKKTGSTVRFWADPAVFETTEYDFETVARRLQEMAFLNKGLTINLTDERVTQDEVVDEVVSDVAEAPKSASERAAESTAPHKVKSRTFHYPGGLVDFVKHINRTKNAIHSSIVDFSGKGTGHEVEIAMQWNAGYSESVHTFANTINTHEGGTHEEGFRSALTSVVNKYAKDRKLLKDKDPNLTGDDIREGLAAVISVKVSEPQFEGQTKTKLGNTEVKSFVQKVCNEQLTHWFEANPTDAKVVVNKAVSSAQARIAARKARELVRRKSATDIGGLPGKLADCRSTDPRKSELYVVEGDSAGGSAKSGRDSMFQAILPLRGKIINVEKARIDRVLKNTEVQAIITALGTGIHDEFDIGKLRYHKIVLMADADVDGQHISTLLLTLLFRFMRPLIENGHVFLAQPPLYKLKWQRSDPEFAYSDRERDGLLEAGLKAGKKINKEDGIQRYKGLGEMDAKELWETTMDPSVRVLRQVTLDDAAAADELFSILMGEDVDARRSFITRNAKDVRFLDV
Chain of DNA gyrase subunit A/DNA gyrase subunit B (P9WG47 whole entry): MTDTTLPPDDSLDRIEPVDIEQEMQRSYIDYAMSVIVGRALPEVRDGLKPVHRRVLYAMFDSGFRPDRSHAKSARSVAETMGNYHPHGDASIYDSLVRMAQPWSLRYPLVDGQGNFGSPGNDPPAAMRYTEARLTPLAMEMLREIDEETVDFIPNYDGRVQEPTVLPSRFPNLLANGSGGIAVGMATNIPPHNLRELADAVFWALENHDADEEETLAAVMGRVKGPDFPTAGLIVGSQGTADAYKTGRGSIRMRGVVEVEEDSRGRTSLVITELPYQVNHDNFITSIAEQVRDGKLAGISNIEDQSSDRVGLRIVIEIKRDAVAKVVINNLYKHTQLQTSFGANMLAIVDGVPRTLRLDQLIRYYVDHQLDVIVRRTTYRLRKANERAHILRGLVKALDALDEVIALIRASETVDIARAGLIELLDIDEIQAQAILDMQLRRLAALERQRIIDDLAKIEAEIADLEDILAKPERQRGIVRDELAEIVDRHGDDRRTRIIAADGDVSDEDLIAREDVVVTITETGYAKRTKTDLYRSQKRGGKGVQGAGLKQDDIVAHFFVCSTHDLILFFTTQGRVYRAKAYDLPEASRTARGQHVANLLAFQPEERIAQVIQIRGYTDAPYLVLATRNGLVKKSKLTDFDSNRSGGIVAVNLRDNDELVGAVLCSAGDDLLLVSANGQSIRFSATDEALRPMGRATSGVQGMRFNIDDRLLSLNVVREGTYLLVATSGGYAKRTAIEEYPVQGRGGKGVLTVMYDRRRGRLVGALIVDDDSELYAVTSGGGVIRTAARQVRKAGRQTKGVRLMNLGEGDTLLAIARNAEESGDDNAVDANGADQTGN

Staphylococcus aureus [3] = test: Antibacterial activity against Staphylococcus aureus ATCC 29213 assessed as growth inhibition after 20 hrs by broth dilution method; assay type: functional; conditions: ATCC 29213, 20 h
[4] = Inhibition of Escherichia coli topoisomerase 4-mediated DNA relaxation activity
[5] = Inhibition of Escherichia coli DNA gyrase supercoiling activity
Staphylococcus aureus [6] = test: Antibacterial activity against clinical isolates of Staphylococcus aureus EMRSA-16 assessed as growth inhibition after 20 hrs by broth dilution method; assay type: functional; conditions: EMRSA-16, 20 h
DNA gyrase = DNA gyrase (Staphylococcus aureus, UniProt P0A0K8+P20831); test: Inhibition of Staphylococcus aureus DNA gyrase assessed as reduction in enzyme-catalyzed supercoiling of relaxed circular pBR322 DNA incubated for 30 mins by agarose gel electrophoresis; assay type: protein-complex assay
Chain of DNA gyrase (P0A0K8 whole entry): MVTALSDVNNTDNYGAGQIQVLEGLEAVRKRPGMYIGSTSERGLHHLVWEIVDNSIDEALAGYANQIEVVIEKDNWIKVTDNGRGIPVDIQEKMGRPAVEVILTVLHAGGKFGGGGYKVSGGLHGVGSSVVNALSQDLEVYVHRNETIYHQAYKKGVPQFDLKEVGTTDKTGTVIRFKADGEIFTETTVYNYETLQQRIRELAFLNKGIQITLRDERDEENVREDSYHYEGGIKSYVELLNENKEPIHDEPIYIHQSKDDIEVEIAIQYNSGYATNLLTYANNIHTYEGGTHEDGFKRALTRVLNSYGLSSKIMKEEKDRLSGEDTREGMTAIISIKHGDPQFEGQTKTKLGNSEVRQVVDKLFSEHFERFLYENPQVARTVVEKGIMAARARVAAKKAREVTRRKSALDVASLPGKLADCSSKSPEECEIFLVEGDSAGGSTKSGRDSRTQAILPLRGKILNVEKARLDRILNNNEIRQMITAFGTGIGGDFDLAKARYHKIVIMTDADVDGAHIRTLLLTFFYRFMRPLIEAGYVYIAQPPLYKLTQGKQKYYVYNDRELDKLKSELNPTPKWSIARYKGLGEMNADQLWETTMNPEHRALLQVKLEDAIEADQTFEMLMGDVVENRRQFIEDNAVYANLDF
Chain of DNA gyrase (P20831 whole entry): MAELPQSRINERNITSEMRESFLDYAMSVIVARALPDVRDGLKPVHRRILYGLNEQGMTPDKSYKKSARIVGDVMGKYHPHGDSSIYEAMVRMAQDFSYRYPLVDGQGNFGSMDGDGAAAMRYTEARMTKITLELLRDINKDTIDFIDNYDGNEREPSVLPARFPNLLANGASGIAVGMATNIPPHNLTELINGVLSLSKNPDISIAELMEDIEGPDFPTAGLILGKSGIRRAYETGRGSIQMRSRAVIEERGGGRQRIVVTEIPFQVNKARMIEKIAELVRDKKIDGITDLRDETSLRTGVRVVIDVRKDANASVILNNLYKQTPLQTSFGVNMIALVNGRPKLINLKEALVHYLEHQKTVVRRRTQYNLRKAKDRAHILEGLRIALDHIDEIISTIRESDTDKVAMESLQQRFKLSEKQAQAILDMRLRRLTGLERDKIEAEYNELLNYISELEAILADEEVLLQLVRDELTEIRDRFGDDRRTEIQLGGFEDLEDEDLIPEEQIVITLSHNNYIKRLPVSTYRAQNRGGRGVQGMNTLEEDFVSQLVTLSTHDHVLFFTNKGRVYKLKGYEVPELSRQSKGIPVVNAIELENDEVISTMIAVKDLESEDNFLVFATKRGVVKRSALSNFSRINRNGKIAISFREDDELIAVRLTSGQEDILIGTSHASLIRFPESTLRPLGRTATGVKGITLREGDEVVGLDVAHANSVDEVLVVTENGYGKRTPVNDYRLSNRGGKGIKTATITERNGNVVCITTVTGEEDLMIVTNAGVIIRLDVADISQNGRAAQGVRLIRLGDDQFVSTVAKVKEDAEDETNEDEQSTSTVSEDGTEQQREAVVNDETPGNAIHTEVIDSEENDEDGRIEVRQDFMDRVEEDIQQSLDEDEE

[7] = Inhibition of Staphylococcus aureus topoisomerase 4 assessed as inhibition of decatenation of catenated kinetoplast DNA after 30 mins by agarose gel electrophoresis
Escherichia coli [8] = test: Antibacterial activity against Escherichia coli NCTC 10418 assessed as growth inhibition; assay type: functional
Escherichia coli [9] = test: Antibacterial activity against Escherichia coli MC 1061 assessed as growth inhibition; assay type: functional
Clostridioides difficile [10] = test: Antibacterial activity against Clostridium difficile R20291 assessed as growth inhibition; assay type: functional
[11] = Inhibition of Escherichia coli topoisomerase 4-mediated DNA decatenation activity
Clostridioides difficile [12] = test: Antibacterial activity against Clostridium difficile CD 630 assessed as growth inhibition; assay type: functional
[13] = system: Mycobacterium tuberculosis; test: Antibacterial activity against Mycobacterium tuberculosis H37Rv hypoxia-induced latency form by spot culture growth inhibition assay; assay type: functional
[14] = Inhibition of Clostridium difficile DNA gyrase supercoiling activity; design: species or system Clostridioides difficile

In the case of `COc1cccc(-c2nc3ccc(-c4ccc5nc(-c6cccc(OC)c6)[nH]c5c4)cc3[nH]2)c1`, the MIC90 [1] is reported as > 16 µg/mL, the IC50 [2] is reported as 29 µM and the MIC90 (Staphylococcus aureus [3]) is reported as > 128 µg/mL. The IC50 [4] was > 50 µM, the IC50 [5] was > 50 µM and the MIC90 (Staphylococcus aureus [6]) was > 128 µg/mL. For the same compound, the IC50 (DNA gyrase) was 8.8 µM, the IC50 [7] was 70.3 µM and the MIC90 (Escherichia coli [8]) was > 64 µg/mL. For the same compound, the MIC90 (Escherichia coli [9]) was > 64 µg/mL, the MIC90 (Clostridioides difficile [10]) was > 32 µg/mL and the IC50 [11] was > 50 µM. For the same compound, the MIC90 (Clostridioides difficile [12]) was > 32 µg/mL.

Work on `Cc1ccc(-c2nc3ccc(-c4ccc5nc(-c6ccc(C)cc6)[nH]c5c4)cc3[nH]2)cc1` yielded an MIC90 [1] of 1 µg/mL (≈ 2.41 µM), an IC50 [2] of 2 µM and an MIC90 (Staphylococcus aureus [3]) of 0.03 µg/mL (≈ 0.0724 µM). For the same compound, the MIC90 [13] was 2 µg/mL (≈ 4.82 µM), the IC50 [4] was > 50 µM and the IC50 [5] was > 50 µM. It also gave an MIC90 (Staphylococcus aureus [6]) of 0.06 µg/mL (≈ 0.145 µM), an IC50 (DNA gyrase) of 5.6 µM and an IC50 [7] of 50.9 µM. For the same compound, the MIC90 (Escherichia coli [8]) was > 64 µg/mL, the MIC90 (Escherichia coli [9]) was 0.06 µg/mL (≈ 0.145 µM) and the MIC90 (Clostridioides difficile [10]) was 0.06 µg/mL (≈ 0.145 µM). For the same compound, the IC50 [11] was > 50 µM and the MIC90 (Clostridioides difficile [12]) was 0.06 µg/mL (≈ 0.145 µM).

`Nc1ccc(-c2nc3cc(-c4ccc5[nH]c(-c6ccc(N)cc6)nc5c4)ccc3[nH]2)cc1` gave an MIC90 [1] of 16 µg/mL (≈ 38.4 µM), an IC50 [2] of 11.3 µM and an MIC90 (Staphylococcus aureus [3]) of 0.125 µg/mL (≈ 0.3 µM). The MIC90 [13] was 8 µg/mL (≈ 19.2 µM), the IC50 [4] was 6.5 µM and the IC50 [14] was 8.4 µM. For the same compound, the IC50 [5] was > 50 µM, the MIC90 (Staphylococcus aureus [6]) was 0.5 µg/mL (≈ 1.2 µM) and the IC50 (DNA gyrase) was 0.3 µM. The IC50 [7] was 15.5 µM, the MIC90 (Escherichia coli [8]) was > 64 µg/mL and the MIC90 (Escherichia coli [9]) was 0.06 µg/mL (≈ 0.144 µM). The MIC90 (Clostridioides difficile [10]) was 0.125 µg/mL (≈ 0.3 µM), the IC50 [11] was 8 µM and the MIC90 (Clostridioides difficile [12]) was 0.03 µg/mL (≈ 0.072 µM).

For `c1cc(-c2nc3cc(-c4ccc5[nH]c(-c6ccncc6)nc5c4)ccc3[nH]2)ccn1` [RIDINILAZOLE], the MIC90 (Staphylococcus aureus [3]) was > 128 µg/mL, the IC50 [14] was > 50 µM and the IC50 [5] was > 50 µM. For the same compound, the MIC90 (Staphylococcus aureus [6]) was > 128 µg/mL, the IC50 (DNA gyrase) was > 50 µM and the IC50 [7] was > 50 µM. For the same compound, the MIC90 (Escherichia coli [8]) was > 16 µg/mL, the MIC90 (Clostridioides difficile [10]) was 0.125 µg/mL (≈ 0.322 µM) and the IC50 [11] was > 50 µM. For the same compound, the MIC90 (Clostridioides difficile [12]) was 0.06 µg/mL (≈ 0.154 µM).
